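Results reflect a 48-hour exposure of cells in 96-well plates to compound at five concentrations. TGI: total growth inhibition.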
Key:
Assay in all cases: NCI-60 cell line screen, 48 h
786-0 renal = system: 786-0 renal
A498 renal = system: A498 renal
A549 NSCLC = system: A549 NSCLC
ACHN renal = system: ACHN renal
BT-549 breast = system: BT-549 breast
CAKI-1 renal = system: CAKI-1 renal
CCRF-CEM leukemia = system: CCRF-CEM leukemia
COLO 205 colon = system: COLO 205 colon
DU-145 prostate = system: DU-145 prostate
EKVX NSCLC = system: EKVX NSCLC
HCC-2998 colon = system: HCC-2998 colon
HCT-116 colon = system: HCT-116 colon
HCT-15 colon = system: HCT-15 colon
HOP-62 NSCLC = system: HOP-62 NSCLC
HOP-92 NSCLC = system: HOP-92 NSCLC
HS 578T breast = system: HS 578T breast
HT29 colon = system: HT29 colon
IGROV1 ovarian = system: IGROV1 ovarian
K-562 leukemia = system: K-562 leukemia
KM12 colon = system: KM12 colon
LOX IMVI melanoma = system: LOX IMVI melanoma
M14 melanoma = system: M14 melanoma
MALME-3M melanoma = system: MALME-3M melanoma
MCF7 breast = system: MCF7 breast
MDA-MB-231 breast = system: MDA-MB-231 breast
MDA-MB-435 = system: MDA-MB-435
MDA-N = system: MDA-N
MOLT-4 leukemia = system: MOLT-4 leukemia
NCI-H226 lung = system: NCI-H226 lung
NCI-H23 lung = system: NCI-H23 lung
NCI-H460 lung = system: NCI-H460 lung
NCI-H522 lung = system: NCI-H522 lung
NCI/ADR-RES ovarian = system: NCI/ADR-RES ovarian
OVCAR-3 ovarian = system: OVCAR-3 ovarian
OVCAR-4 ovarian = system: OVCAR-4 ovarian
OVCAR-5 ovarian = system: OVCAR-5 ovarian
OVCAR-8 ovarian = system: OVCAR-8 ovarian
PC-3 prostate = system: PC-3 prostate
RPMI-8226 leukemia = system: RPMI-8226 leukemia
RXF 393 renal = system: RXF 393 renal
SF-268 CNS = system: SF-268 CNS
SF-295 CNS = system: SF-295 CNS
SK-MEL-2 melanoma = system: SK-MEL-2 melanoma
SK-MEL-28 melanoma = system: SK-MEL-28 melanoma
SK-MEL-5 melanoma = system: SK-MEL-5 melanoma
SK-OV-3 ovarian = system: SK-OV-3 ovarian
SN12C renal = system: SN12C renal
SNB-19 CNS = system: SNB-19 CNS
SNB-75 CNS = system: SNB-75 CNS
SR leukemia = system: SR leukemia
SW-620 colon = system: SW-620 colon
T-47D breast = system: T-47D breast
TK-10 renal = system: TK-10 renal
U251 CNS = system: U251 CNS
UACC-257 melanoma = system: UACC-257 melanoma
UACC-62 melanoma = system: UACC-62 melanoma
UO-31 renal = system: UO-31 renal
HL-60(TB) leukemia = system: HL-60(TB) leukemia
SF-539 CNS = system: SF-539 CNS

Measured: TGI

O=C(O)CC1(CC(=O)O)Nc2ccccc2SC1=O
not listed: HL-60(TB) leukemia | SF-539 CNS
> 100 µM: all other assays above

O=c1[nH]c(-c2ccccc2)nc2c1sc1nc3ccccc3n12
82.5 µM: HS 578T breast
not listed: HOP-62 NSCLC
> 100 µM: all other assays above

Source: PubChem BioAssay (NCI)
